Columns and labels:
[1] = test system: TMHT (Thy-1 Mutated Human Tau) mouse; assay: In-vivo efficacy, Morris Water Maze in tau transgenic mice; settings: 30 mg/kg orally for 8 weeks
Excerpt: Various compounds of different classes (among them also antibody treatments) were positively tested for their efficacy in the TMHT model. Published examples are the γ-secretase modulator CHF5074 (Lanzilotta A, et al. The γ-secretase modulator CHF5074 reduces the accumulation of native hyperphosphoxylated tau in a transgenic mouse model of Alzheimer's disease. J Mol Neurosci. 45(1):22--33 (2010)), sodium selenate (Corcoran N M et al. Sodium selenate specifically activates PP2A phosphatase, dephosphorylates tau and reverses memory deficits in an Alzheimer's disease model. J Clin Neurosci. 17(8):1025-33 (2010)) and grape-seed polyphenol extract (Wang J et al. Grape derived polyphenols attenuate tau neuropathology in a mouse model of Alzheimer's disease. […] The effects of the compounds on learning in the Morris Mater Maze (MWM) were evaluated. Blood (plasma) and brain samples were collected after sacrification. Samples collected at sacrifice were plasma, left cortex, left hippocampus, right cortex, right hippocampus, remainder of left brain hemisphere, remainder of right brain hemisphere. In total 48 animals were used and allocated to 4 treatment groups. The start position of the mouse and the position of the platform (FIG. 1) in the different trials of the MWM were as indicated in Table 9: […] A descriptive statistical analysis was performed on all evaluated parameters. All data were represented as mean ±standard error of mean (SEM). MWM learning curve data of three trials per day were averaged. Over a period of 4 days, the ability to find a hidden platform using visual cues was measured performing 3 trials a day. By comparison of the learning curves, the cognitive abilities of the different treatment groups and possible drug effects were evaluated.

[2] = target: CK1a1 (Homo sapiens, UniProt P48729); assay: Kinase selectivity, % remaining activity; type: biochemical; settings: read-out: % of remaining activity (relative to DMSO), CK1a1; 10 μM compound, 10 μM ATP, duplicate
Protocol: Compounds were tested in single dose duplicate mode at a concentration of 10 μM (in DMSO) and reactions were carried out at 10 μM ATP, Table 3 reports the % of remaining activity (relative to DMSO).

[3] = target: ABL2/ARG (Homo sapiens, UniProt P42684); assay: Kinase selectivity, % remaining activity; type: biochemical; settings: 10 μM compound, 10 μM ATP, duplicate, read-out: % of remaining activity (relative to DMSO)
Outline: (§1)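 % remaining activity vs DMSO; compound 10 μM, duplicate wells; ATP 10 μM.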

[4] = target: CDK5/p25 (Homo sapiens, UniProt Q00535); assay: Kinase selectivity, % remaining activity; type: biochemical; settings: 10 μM compound, 10 μM ATP, duplicate, read-out: % of remaining activity (relative to DMSO)
Chain of CDK5/p25 (Q00535 whole entry, species assumed): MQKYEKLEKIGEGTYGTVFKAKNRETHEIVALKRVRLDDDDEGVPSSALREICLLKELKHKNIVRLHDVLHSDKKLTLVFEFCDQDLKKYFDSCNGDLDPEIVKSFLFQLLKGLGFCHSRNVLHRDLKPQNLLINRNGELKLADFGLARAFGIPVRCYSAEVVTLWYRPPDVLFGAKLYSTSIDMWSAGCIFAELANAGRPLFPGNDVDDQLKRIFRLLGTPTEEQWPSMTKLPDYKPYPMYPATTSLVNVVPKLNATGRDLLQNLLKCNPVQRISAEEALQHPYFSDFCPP
Outline: as §1

[5] = target: CK1e (Homo sapiens, UniProt P49674); assay: Kinase selectivity, % remaining activity; type: biochemical; settings: 10 μM compound, 10 μM ATP, duplicate, read-out: % of remaining activity (relative to DMSO)
Chain of CK1e (P49674 whole entry): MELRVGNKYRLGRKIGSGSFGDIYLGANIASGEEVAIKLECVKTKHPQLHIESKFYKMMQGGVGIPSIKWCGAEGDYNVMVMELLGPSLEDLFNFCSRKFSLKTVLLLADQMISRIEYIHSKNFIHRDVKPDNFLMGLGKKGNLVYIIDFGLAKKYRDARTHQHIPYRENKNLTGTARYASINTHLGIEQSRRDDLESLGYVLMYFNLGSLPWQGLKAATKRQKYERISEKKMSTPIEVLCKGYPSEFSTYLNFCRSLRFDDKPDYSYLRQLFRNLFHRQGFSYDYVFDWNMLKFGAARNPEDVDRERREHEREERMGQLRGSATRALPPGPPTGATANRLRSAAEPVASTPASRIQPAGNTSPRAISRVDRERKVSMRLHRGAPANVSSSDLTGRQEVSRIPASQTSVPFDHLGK
Outline: as §1

[6] = target: CK1g1 (Homo sapiens, UniProt Q9HCP0); assay: Kinase selectivity, % remaining activity; type: biochemical; settings: 10 μM compound, 10 μM ATP, duplicate, read-out: % of remaining activity (relative to DMSO)
Chain of CK1g1 (Q9HCP0 whole entry): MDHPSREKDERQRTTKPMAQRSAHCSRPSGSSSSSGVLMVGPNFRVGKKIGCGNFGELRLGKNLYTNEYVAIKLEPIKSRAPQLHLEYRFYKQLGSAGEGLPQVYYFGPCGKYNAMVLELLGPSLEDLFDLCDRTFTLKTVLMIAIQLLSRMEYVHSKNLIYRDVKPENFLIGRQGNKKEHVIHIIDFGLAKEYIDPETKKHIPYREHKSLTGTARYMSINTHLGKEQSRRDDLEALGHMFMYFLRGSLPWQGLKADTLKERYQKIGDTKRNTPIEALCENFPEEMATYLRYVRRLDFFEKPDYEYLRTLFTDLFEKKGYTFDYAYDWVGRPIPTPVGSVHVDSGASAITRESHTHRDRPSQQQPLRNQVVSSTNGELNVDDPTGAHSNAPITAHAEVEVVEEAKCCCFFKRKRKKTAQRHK
Outline: as §1

[7] = target: CK1g3 (Homo sapiens, UniProt Q9Y6M4); assay: Kinase selectivity, % remaining activity; type: biochemical; settings: 10 μM compound, 10 μM ATP, duplicate, read-out: % of remaining activity (relative to DMSO)
Chain of CK1g3 (Q9Y6M4 whole entry): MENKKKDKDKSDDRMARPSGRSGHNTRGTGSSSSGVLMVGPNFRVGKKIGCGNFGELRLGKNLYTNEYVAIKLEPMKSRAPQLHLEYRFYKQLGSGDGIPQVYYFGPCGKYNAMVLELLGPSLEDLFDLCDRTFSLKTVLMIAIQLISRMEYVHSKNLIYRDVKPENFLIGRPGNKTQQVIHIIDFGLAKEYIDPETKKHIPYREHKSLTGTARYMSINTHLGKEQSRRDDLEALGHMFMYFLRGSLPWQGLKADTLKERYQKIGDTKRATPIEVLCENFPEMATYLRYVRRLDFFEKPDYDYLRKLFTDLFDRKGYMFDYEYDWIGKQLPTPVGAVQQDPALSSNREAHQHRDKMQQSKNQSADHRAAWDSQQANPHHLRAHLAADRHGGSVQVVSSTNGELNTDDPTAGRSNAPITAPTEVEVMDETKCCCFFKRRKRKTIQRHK
Outline: as §1

[8] = target: DAPK1 (Homo sapiens, UniProt P53355); assay: Kinase selectivity, % remaining activity; type: biochemical; settings: 10 μM compound, 10 μM ATP, duplicate, read-out: % of remaining activity (relative to DMSO)
Outline: as §1

[9] = target: EGFR (Homo sapiens, UniProt P00533); assay: Kinase selectivity, % remaining activity; type: biochemical; settings: 10 μM compound, 10 μM ATP, duplicate, read-out: % of remaining activity (relative to DMSO)
Outline: as §1

[10] = target: FGFR1 (Homo sapiens, UniProt P11362); assay: Kinase selectivity, % remaining activity; type: biochemical; settings: 10 μM compound, 10 μM ATP, duplicate, read-out: % of remaining activity (relative to DMSO)
Chain of FGFR1 (P11362 22-822): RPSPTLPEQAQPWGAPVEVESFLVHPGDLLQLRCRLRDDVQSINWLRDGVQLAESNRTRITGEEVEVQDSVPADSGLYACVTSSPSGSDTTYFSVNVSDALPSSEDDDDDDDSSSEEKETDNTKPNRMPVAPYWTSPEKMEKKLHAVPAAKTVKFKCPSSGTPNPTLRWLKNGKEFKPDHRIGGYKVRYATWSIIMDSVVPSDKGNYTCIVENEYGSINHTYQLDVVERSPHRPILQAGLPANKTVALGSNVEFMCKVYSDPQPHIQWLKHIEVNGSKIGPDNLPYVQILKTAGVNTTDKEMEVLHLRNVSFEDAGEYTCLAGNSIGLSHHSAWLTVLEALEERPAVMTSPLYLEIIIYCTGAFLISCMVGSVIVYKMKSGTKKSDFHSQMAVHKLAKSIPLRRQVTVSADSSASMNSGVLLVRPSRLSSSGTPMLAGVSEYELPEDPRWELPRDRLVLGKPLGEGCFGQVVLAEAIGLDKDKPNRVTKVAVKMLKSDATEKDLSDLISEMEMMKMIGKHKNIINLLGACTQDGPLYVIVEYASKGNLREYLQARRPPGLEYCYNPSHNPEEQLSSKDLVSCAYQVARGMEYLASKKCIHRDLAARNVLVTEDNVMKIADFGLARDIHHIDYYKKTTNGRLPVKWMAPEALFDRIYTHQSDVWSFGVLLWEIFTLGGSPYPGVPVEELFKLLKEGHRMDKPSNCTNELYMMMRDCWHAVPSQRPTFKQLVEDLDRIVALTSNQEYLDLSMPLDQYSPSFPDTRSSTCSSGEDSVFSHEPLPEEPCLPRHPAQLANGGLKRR
Outline: as §1

[11] = target: JNK2 (Homo sapiens, UniProt P45984); assay: Kinase selectivity, % remaining activity; type: biochemical; settings: 10 μM compound, 10 μM ATP, duplicate, read-out: % of remaining activity (relative to DMSO)
Chain of JNK2 (P45984 whole entry): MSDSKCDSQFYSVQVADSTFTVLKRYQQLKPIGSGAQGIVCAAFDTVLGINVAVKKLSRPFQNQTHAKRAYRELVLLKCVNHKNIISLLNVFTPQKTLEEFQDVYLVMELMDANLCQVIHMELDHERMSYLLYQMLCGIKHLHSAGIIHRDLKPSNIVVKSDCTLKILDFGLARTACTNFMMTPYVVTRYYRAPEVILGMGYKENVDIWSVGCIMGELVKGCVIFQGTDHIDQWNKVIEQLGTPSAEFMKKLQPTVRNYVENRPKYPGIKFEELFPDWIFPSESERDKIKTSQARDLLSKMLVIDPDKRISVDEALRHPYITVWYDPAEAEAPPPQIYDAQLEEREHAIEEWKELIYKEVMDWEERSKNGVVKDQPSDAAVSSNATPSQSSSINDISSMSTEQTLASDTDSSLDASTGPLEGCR
Outline: as §1

[12] = target: KDR/VEGFR2 (Homo sapiens, UniProt P35968); assay: Kinase selectivity, % remaining activity; type: biochemical; settings: 10 μM compound, 10 μM ATP, duplicate, read-out: % of remaining activity (relative to DMSO)
Outline: as §1

[13] = target: LCK (Homo sapiens, UniProt P06239); assay: Kinase selectivity, % remaining activity; type: biochemical; settings: 10 μM compound, 10 μM ATP, duplicate, read-out: % of remaining activity (relative to DMSO)
Chain of LCK (P06239 whole entry): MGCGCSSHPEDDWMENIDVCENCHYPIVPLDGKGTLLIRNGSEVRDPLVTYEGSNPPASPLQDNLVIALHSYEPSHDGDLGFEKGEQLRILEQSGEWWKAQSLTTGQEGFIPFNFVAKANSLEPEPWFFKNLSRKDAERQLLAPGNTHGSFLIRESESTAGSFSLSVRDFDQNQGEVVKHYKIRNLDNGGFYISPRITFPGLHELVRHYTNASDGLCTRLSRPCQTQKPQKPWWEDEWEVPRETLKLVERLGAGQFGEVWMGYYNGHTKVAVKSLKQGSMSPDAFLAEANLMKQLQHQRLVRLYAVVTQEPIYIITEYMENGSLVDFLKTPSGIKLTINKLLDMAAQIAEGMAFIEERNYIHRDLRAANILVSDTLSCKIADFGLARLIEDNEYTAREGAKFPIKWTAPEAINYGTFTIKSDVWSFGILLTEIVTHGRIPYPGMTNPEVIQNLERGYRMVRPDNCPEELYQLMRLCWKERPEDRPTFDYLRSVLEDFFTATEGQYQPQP
Outline: as §1

[14] = target: P38a/MAPK14 (Homo sapiens, UniProt Q16539); assay: Kinase selectivity, % remaining activity; type: biochemical; settings: 10 μM compound, 10 μM ATP, duplicate, read-out: % of remaining activity (relative to DMSO)
Chain of P38a/MAPK14 (Q16539 whole entry): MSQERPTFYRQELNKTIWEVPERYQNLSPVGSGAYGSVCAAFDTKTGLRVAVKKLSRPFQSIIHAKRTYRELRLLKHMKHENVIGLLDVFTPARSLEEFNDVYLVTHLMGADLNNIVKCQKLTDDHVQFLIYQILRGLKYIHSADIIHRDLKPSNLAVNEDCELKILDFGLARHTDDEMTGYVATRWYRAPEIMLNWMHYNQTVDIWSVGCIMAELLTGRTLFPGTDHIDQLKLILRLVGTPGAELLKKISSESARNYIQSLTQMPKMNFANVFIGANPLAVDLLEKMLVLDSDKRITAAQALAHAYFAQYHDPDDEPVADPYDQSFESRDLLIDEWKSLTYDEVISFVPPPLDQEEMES
Outline: as §1

[15] = target: PKA (Homo sapiens, UniProt P17612); assay: Kinase selectivity, % remaining activity; type: biochemical; settings: 10 μM compound, 10 μM ATP, duplicate, read-out: % of remaining activity (relative to DMSO)
Outline: as §1

[16] = target: PKCb2 (Homo sapiens, UniProt P05771); assay: Kinase selectivity, % remaining activity; type: biochemical; settings: 10 μM compound, 10 μM ATP, duplicate, read-out: % of remaining activity (relative to DMSO)
Chain of PKCb2 (P05771 1-673 isoform P05771-2): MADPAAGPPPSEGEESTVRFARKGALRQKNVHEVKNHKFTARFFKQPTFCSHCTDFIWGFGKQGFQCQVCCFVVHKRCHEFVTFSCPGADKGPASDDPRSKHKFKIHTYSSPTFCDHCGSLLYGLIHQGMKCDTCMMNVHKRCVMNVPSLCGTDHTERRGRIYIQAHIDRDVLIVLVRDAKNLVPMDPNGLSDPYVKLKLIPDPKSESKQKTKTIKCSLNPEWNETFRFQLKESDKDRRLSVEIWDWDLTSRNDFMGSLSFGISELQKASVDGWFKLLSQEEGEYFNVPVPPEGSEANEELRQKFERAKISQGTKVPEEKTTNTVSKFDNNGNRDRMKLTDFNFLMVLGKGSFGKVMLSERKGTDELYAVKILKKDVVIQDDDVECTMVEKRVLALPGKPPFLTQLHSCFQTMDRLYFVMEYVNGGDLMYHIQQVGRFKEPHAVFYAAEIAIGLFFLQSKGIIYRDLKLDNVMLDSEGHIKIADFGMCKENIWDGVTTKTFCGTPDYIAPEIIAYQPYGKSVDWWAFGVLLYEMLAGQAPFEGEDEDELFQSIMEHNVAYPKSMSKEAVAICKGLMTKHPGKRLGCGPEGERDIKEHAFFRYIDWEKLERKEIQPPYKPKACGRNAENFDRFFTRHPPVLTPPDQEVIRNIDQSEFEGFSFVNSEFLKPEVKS
Outline: as §1

[17] = target: RIPK2 (Homo sapiens, UniProt O43353); assay: Kinase selectivity, % remaining activity; type: biochemical; settings: 10 μM compound, 10 μM ATP, duplicate, read-out: % of remaining activity (relative to DMSO)
Outline: as §1

[18] = target: TNIK (Homo sapiens, UniProt Q9UKE5); assay: Kinase selectivity, % remaining activity; type: biochemical; settings: 10 μM compound, 10 μM ATP, duplicate, read-out: % of remaining activity (relative to DMSO)
Outline: as §1

[19] = target: CK1d (casein kinase 1 delta) (Homo sapiens, UniProt P48730); assay: Kinase selectivity, % remaining activity and IC50; type: biochemical; settings: CK1d; 10 μM compound, 10 μM ATP, duplicate; read-out: % of remaining activity (relative to DMSO)
Chain of CK1d (casein kinase 1 delta) (P48730 whole entry): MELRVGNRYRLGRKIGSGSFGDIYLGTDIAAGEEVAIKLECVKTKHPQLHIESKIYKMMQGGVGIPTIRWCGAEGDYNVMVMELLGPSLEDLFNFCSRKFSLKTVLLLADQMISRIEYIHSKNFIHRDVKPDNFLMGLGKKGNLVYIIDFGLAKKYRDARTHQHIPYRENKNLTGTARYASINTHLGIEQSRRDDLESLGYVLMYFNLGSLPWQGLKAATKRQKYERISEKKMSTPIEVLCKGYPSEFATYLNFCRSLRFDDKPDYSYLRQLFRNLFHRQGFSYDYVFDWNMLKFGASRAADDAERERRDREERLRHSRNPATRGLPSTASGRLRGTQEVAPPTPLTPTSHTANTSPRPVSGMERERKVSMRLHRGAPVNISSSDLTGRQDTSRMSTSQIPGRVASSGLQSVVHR
Outline: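 Percent remaining activity relative to DMSO was measured in duplicate with compound at 10 μM and 10 μM ATP. IC50 values for CK1δ were then determined, also at 10 μM ATP.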

With `Nc1ncnc2c1c(COc1cccc(Cl)c1)nn2C1CCOCC1` [PF4800567, 3-[(3-Chlorophenoxy)methyl]-1-(tetrahydro-2H-pyran-4-yl)-1H-pyrazolo[3,4-d]pyrimidin-4-amine] the “Escape latency (time to reach the target), Mean ± SEM, Day 1” value ([1]; Day 1) was 51.1 ± 3.10 s, the “Path length to reach the target, Mean ± SEM, Day 1” value ([1]; Day 1) was 8.00 ± 0.54 meter and the “Escape latency (time to reach the target), Mean ± SEM, Day 2” value ([1]; Day 2) was 50.0 ± 3.49 s. The “Path length to reach the target, Mean ± SEM, Day 2” value ([1]; Day 2) was 7.51 ± 0.56 meter, the “Escape latency (time to reach the target), Mean ± SEM, Day 3” value ([1]; Day 3) was 43.6 ± 3.86 s and the “Path length to reach the target, Mean ± SEM, Day 3” value ([1]; Day 3) was 5.83 ± 0.61 meter. The “Escape latency (time to reach the target), Mean ± SEM, Day 4” value ([1]; Day 4) was 44.0 ± 3.72 s, the “Path length to reach the target, Mean ± SEM, Day 4” value ([1]; Day 4) was 5.70 ± 0.58 meter and the remaining activity at 10 µM [2] was 29.3%. For the same compound, the remaining activity at 10 µM [3] was 68.4%, the remaining activity at 10 µM [4] was 97.7% and the remaining activity at 10 µM [5] was 3%. For the same compound, the remaining activity at 10 µM [6] was 85.1%, the remaining activity at 10 µM [7] was 88.9% and the remaining activity at 10 µM [8] was 92.5%. The remaining activity at 10 µM [9] was 68.8%, the remaining activity at 10 µM [10] was 80.8% and the remaining activity at 10 µM [11] was 96.5%. For the same compound, the remaining activity at 10 µM [12] was 83.1%, the remaining activity at 10 µM [13] was 19.9% and the remaining activity at 10 µM [14] was 71.2%. The remaining activity at 10 µM [15] was 83%, the remaining activity at 10 µM [16] was 88.5% and the remaining activity at 10 µM [17] was 47.6%. The remaining activity at 10 µM [18] was 89.7% and the remaining activity at 10 µM [19] was 8.41%.
